From patent US8669291B2, “Phenyl substituted cycloalkylamines as monoamine reuptake inhibitors” (Sunovion Pharmaceuticals Inc., priority 2007, dated 2014)

How the values were obtained:
rats = test: Rat Forced Swim Test; assay type: in vivo; conditions: PO
From the text: The method, which detects antidepressant activity, followed that described by Porsolt et al (Eur. J. Pharmacol., 47: 379-391 (1978)) and modified by Lucki et al. (Psychopharm, 121: 66-72 (1995)). Rats forced to swim in a situation from which they cannot escape rapidly become immobile. Antidepressants decrease the duration of immobility. […] Selective NE reuptake inhibitors decrease immobility by increasing climbing behaviors whereas selective 5-HT reuptake inhibitors decrease immobility by increasing swimming behaviors.
Rats were individually placed in a cylinder (Height=40 cm; Diameter=20 cm) containing 22 cm water (25° C.) for 15 minutes on the first day of the experiment (Session 1) and were then put back in the water 24 hours later for a 5 minute test (Session 2). The sessions were videotaped and duration of immobility as well as swimming and climbing behaviors during the 5 minute test were measured. Twelve rats were tested in each group. The test was performed blind. Compounds were typically evaluated at 3 doses (1-30 mg/kg), administered orally 2 times: 24 hours and 30-60 minutes before the test (Session 2), and compared with a vehicle control group. Desipramine (20 mg/kg i.p.), administered under the same experimental conditions, was used as the positive reference substance.
Data were analyzed by one way analysis of variance (ANOVA) followed by post-hoc comparisons where appropriate. An effect will be considered significant if p<0.05. Data are represented as the mean and standard error to the mean (s.e.m.).

DA Transporter (DAT) = target: T1, DA Transporter (DAT) (Mus musculus, UniProt Q61327); test: ex vivo [3H] WIN 35428 binding to DAT sites in mouse brain; conditions: mice, 60 minutes after treatment
T1 construct: Striatal membranes (200 μL; equivalent to 2 mg wet weight of tissue/tube); from tissue; host or cells: striatum of C57BL/6 mice
T1 sequence (Q61327 whole entry): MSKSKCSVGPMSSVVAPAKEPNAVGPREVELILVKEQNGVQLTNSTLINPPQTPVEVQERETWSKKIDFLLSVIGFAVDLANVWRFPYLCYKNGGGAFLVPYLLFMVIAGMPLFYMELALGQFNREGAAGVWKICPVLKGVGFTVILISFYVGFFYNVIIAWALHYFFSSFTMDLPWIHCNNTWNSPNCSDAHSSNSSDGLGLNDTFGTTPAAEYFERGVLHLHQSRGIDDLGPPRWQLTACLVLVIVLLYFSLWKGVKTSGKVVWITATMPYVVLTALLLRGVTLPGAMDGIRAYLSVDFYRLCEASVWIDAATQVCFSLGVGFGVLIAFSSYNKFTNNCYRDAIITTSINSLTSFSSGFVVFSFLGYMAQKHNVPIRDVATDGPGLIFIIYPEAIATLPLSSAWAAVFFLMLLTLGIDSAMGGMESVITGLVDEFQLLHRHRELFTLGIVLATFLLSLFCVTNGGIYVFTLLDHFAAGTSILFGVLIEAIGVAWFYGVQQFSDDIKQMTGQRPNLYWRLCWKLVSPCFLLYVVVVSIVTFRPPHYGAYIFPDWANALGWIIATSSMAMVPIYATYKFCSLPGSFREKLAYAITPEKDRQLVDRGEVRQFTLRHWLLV
Experimental: Receptor occupancy of central noradrenaline (NA), 5-HT and dopamine (DA) transporter sites following peripheral administration of compounds was determined using [^3H] nisoxetine, [^3H] citalopram and [^3H] WIN 35428 binding, respectively. Liquid scintillation counting was used to quantify the radioactivity.
C57BL/6 mice (25-30 g) were dosed orally with either vehicle or compound at 4 dose levels. Mice were sacrificed 60 minutes after treatment. Whole brains were removed and cortex and striata dissected out before being frozen on dry ice. The brain tissue was stored at −20° C. until the day of the assay. The cortex from each hemisphere was frozen separately. One was used to determine occupancy of NA transporter sites and the other occupancy of 5-HT transporter sites. Striatum was used to determine occupancy of DA transporter sites.
Frontal cortex from each hemisphere or striata was homogenized individually in ice-cold assay buffer using a tight fitting glass/Teflon homogenizer and used immediately in the binding assay.
Striatal membranes (200 μL; equivalent to 2 mg wet weight of tissue/tube) were incubated with 25 μL of [^3H] WIN 35428 at a single concentration of 24 nM and either 25 μL of buffer (total binding) or 25 μL of GBR12935 (1 μM; non-specific binding) for 2 h at 4° C. For each animal, two tubes were used for the determination of total binding and two tubes for the determination of non-specific binding.
Membrane bound radioactivity was recovered by filtration under vacuum through Skatron 11731 filters, presoaked in 0.5% PEI, using a Skatron cell harvester. Filters were rapidly washed with ice-cold phosphate buffer and radioactivity (dpm) was determined by liquid scintillation counting (1 mL Packard MV Gold scintillator).
A value for specific binding (dpm) was generated by the subtraction of mean non-specific binding (dpm) from mean total binding (dpm) for each animal. Data are presented as mean specific binding (dpm) and as a percentage of the vehicle-treated control taken as 100%.

## CN(C)C[C@@H]1CCCC[C@@]1(O)c1ccc(Cl)c(Cl)c1 (single isomer, unassigned) [Compound 2, cis-1-(3,4-dichlorophenyl)-2-((dimethylamino)methyl)cyclohexanol]
rats; 1 mg/kg
  Rat Forced Swim (Means ± S.E.M.) Climbing: ## (11-20 (##))
  Rat Forced Swim (Means ± S.E.M.) Immobility: +++ (>41 (+++))
  Rat Forced Swim (Means ± S.E.M.) Swimming: * (1-5 (*))
rats; 3 mg/kg
  Rat Forced Swim (Means ± S.E.M.) Climbing: # (1-10 (#))
  Rat Forced Swim (Means ± S.E.M.) Immobility: +++ (>41 (+++))
  Rat Forced Swim (Means ± S.E.M.) Swimming: * (1-5 (*))
rats; 10 mg/kg
  Rat Forced Swim (Means ± S.E.M.) Climbing: ### (>21 (###))
  Rat Forced Swim (Means ± S.E.M.) Immobility: + (1-20 (+))
  Rat Forced Swim (Means ± S.E.M.) Swimming: ** (6-9 (**))
DA Transporter (DAT); 1 mg/kg PO
  % Transporter Occupancy, DAT: 15%
DA Transporter (DAT); 3 mg/kg PO
  % Transporter Occupancy, DAT: 50%
DA Transporter (DAT); 10 mg/kg PO
  % Transporter Occupancy, DAT: 79%
DA Transporter (DAT); 30 mg/kg PO
  % Transporter Occupancy, DAT: 90%
